From article PMC8157280 (Pharmaceutics, 2021)
Counter-ions that a name gives are not always drawn.

Experiments:
Sprague-Dawley rats [1] = assay: Fatality after GHB with or without ketamine; conditions: GHB 400 mg/kg i.v. bolus + 208 mg/kg/h infusion and/or ketamine 6 mg/kg bolus + 1 mg/kg/min infusion; n = 8
RBE4 cells = assay: [3H]-GHB uptake in RBE4 cells; format: cell-based, rat; conditions: for GHB uptake compared with GHB alone / GHB uptake in the presence of staurosporine: 10 mM GHB; for GHB uptake in the presence of staurosporine: 2 h pre-incubation with ketamine 40 µM or PMA 100 nM plus staurosporine
Experimental: The immortalized rat brain capillary endothelial cell line (RBE4) was kindly provided by Professor P. Couraud (Institut Cochin, Paris, France). RBE4 cells (passages 39–44) were used in all studies, as described previously. Briefly, cells were grown at 37 °C with 5% CO2 on Type-I collagen-coated flasks, and media was changed every 2–3 days. The culture medium was 1:1 α-minimum essentials medium/Hams F10 nutrient mixture supplemented with L-glutamine (2.0 mM), geneticin (300 μg/mL), human recombinant fibroblast growth factor (1 ng/mL), gentamicin (50 μg/mL), and 10% v/v fetal bovine serum (FBS). Cells were passaged using 0.25% trypsin/EDTA and seeded on individual 35 × 10 mm collagen-coated wells for uptake studies which were performed 7 days post-confluence (the time needed for formation of tight junctions).
In addition, the effect of various pre-incubation times with ketamine (0.5, 2, 4, 8 and 24 h) was also studied in these cells. […] After cell lysis, NaOH was neutralized with 0.5 mL 1.0 N HCl.

[2] = cited from earlier work
Sprague-Dawley rats [3] = assay: Sedative effect (sleep time, righting reflex); conditions: GHB 400 mg/kg i.v. + ketamine 6 or 20 mg/kg i.v.; compared to GHB or ketamine alone
Sprague-Dawley rats [4] = assay: GHB-induced respiratory depression, whole-body plethysmography; conditions: for Respiratory depression (in words): ketamine alone, or naloxone 2 mg/kg i.v. with or without SCH50911 10 mg/kg given 5 min after GHB-ketamine; for Breathing frequency (in words) / Minute volume (in words) / Tidal volume (in words): GHB 600 mg/kg i.v. alone or with ketamine 6 mg/kg + 1 mg/kg/min, treatments 5 min after GHB-ketamine, compared to GHB-ketamine
[5] = GHB toxicokinetics (plasma and urine, noncompartmental analysis); conditions: for Ketamine plasma concentration in the study: ketamine 6 mg/kg i.v. bolus + 1 mg/kg/min infusion, maintained up to 1 h
[6] = parameters: method as in PMID 12667908; conditions: GHB 400 mg/kg i.v. alone; cited from earlier work
[7] = GHB blood-brain partitioning at steady state; conditions: GHB 400 mg/kg i.v. bolus + 208 mg/kg/h infusion alone; steady state 4 h
[8] = GHB 600 mg/kg i.v. bolus, ketamine 6 mg/kg i.v. bolus + 1 mg/kg/min infusion, L-lactate 66 mg/kg + 302.5 mg/kg/h, AR-C155858 1 mg/kg, SCH50911 10 mg/kg or naloxone 2 mg/kg i.v. 5 min after GHB-ketamine

## CNC1(c2ccccc2Cl)CCCCC1=O (racemic) [ketamine, (±) Ketamine Hydrochloride]
Sprague-Dawley rats [1]
  Fatality: No death was observed
RBE4 cells; 15 s, 2 h pre-incubation with ketamine 5, 15 or 40 µM at 37 °C
  GHB uptake compared with GHB alone: significantly increased
RBE4 cells; 15 s, ketamine 5, 15, 40 µM without pre-incubation
  GHB uptake compared with GHB alone: no significant change in GHB uptake
RBE4 cells; 0.5, 2 and 4 h pre-incubation with 40 µM ketamine
  GHB uptake compared with GHB alone: significant increases in GHB uptake
RBE4 cells
  GHB uptake in the presence of staurosporine: no increase in GHB uptake
RBE4 cells; longer pre-incubation times (8 and 24 h) with 40 µM ketamine
  GHB uptake compared with GHB alone: no significant changes
[2]
  Ketamine plasma concentrations associated with fatalities: 1.8 to 27.4 µg/mL
Sprague-Dawley rats [3]
  Effect of co-administration on GHB sleep time: significant increase in sleep time
Sprague-Dawley rats [4]
  Respiratory depression (in words): did not result in any significant respiratory depression
[5]; GHB 600 mg/kg i.v., ketamine 6 mg/kg bolus + 1 mg/kg/min for 60 min
  Steady-state concentration of ketamine with GHB compared to ketamine alone: no significant difference
[5]
  Ketamine plasma concentration in the study: ~ 7 µg/mL
[5]; listed as Ketamine
  Ketamine plasma concentration in the study: 7 µg/mL

## Cc1n[nH]c(C)c1Cc1sc2c(c1C(=O)N1C[C@H](O)CO1)c(=O)n(C)c(=O)n2CC(C)C [AR-C155858, 6-[(3,5-Dimethyl-1H-pyrazol-4-yl)methyl]-5-[[(4S)-4-hydroxy-2-isoxazolidinyl]carbonyl]-3-methyl-1-(2-methylpropyl)thieno [2,3-d]pyrimidine-2,4(1H,3H)-dione]
Sprague-Dawley rats [4]
  Breathing frequency (in words): significant and rapid improvement in breathing frequency
  Minute volume (in words): completely reversed the decline in minute volume

## O=C(O)CCCO [GHB, γ-hydroxybutyric acid]
Sprague-Dawley rats [1]
  Fatality: No death was observed
[6]
  Cbrain (brain GHB concentration at RRR): 71.7 ± 9.89 µg/g
  Cplasma (plasma GHB concentration at RRR): 379 ± 86.2 µg/mL
[7]
  Cbrain GHB: 0.21 ± 0.03 mg/g
Sprague-Dawley rats [4]
  Breathing frequency (in words): decrease in breathing frequency
  Minute volume (in words): remaining unchanged
  Tidal volume (in words): compensatory increase in tidal volume
Sprague-Dawley rats [4]; [8]
  Frequency AUEC: 5540 ± 1000 breaths
  Frequency Emax: 31 ± 5 breaths/min
  Frequency Td: 153 ± 12.5 min

## C[C@H](O)C(=O)[O-].[Na+] [L-lactate, sodium L-lactate]
Sprague-Dawley rats [4]
  Breathing frequency (in words): significant improvement in breathing frequency and minute volume
  Minute volume (in words): significant improvement in breathing frequency and minute volume
  Tidal volume (in words): no change in tidal volume

## C=CCN1CC[C@]23c4c5ccc(O)c4O[C@H]2C(=O)CC[C@@]3(O)[C@H]1C5 [Naloxone, naloxone hydrochloride dihydrate]
Sprague-Dawley rats [4]
  Respiratory depression (in words): no effects

## CCCCCCCCCCCCCC(=O)O[C@@H]1[C@@H](C)[C@@]2(O)[C@@H](C=C(CO)C[C@]3(O)C(=O)C(C)=C[C@@H]23)[C@@H]2C(C)(C)[C@]12OC(C)=O [PMA, phorbol 12-myristate 13-acetate]
RBE4 cells; 2 h pre-incubation with PMA 100 nM
  GHB uptake compared with GHB alone: significant increase in GHB uptake
RBE4 cells
  GHB uptake in the presence of staurosporine: no increase in GHB uptake

## CC1(C)CO[C@@H](CC(=O)O)CN1 [SCH50911, (2S)-(+)-5,5-Dimethyl-2-morpholineacetic acid]
Sprague-Dawley rats [4]
  Breathing frequency (in words): significant improvement in breathing frequency and minute volume
  Minute volume (in words): significant improvement in breathing frequency and minute volume
  Tidal volume (in words): compensatory increase in tidal volume was also absent

## CN[C@@H]1C[C@H]2O[C@@](C)([C@@H]1OC)n1c3ccccc3c3c4c(c5c6ccccc6n2c5c31)C(=O)NC4 [staurosporine]
RBE4 cells; RBE4 cells, co-incubation during 2 h pre-incubation
  Effect on the increase in GHB uptake by PMA and ketamine: significantly inhibited
